SMILES strings stand for the structures.

EML4-ALK G1202R transformed Ba/F3 cells, sequence (Q9UM73 1058-1620 G1202R limits assumed, one chain of several): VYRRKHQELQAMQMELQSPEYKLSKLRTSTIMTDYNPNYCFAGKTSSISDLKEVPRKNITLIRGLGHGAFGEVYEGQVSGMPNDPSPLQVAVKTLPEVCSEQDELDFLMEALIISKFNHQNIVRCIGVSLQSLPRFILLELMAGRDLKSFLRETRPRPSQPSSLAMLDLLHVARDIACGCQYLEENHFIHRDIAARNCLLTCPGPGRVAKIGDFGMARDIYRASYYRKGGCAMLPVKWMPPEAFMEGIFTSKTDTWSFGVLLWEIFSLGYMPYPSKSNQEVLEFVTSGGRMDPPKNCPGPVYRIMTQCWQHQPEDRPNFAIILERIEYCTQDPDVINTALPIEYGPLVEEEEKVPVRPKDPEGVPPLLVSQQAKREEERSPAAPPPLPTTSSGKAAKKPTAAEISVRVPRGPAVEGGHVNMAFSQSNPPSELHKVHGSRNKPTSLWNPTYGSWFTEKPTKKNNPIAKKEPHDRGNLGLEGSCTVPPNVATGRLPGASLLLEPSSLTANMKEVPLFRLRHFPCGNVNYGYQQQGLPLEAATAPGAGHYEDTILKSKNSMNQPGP

One assay concerns the target EML4-ALK G1202R transformed Ba/F3 cells (Homo sapiens, UniProt Q9HC35+Q9UM73, G1202R). The settings on record: 1 µM, result in words.
As for `CCc1cc2c(cc1-c1cnn(C(=O)N(C)C)c1)C(C)(C)c1[nH]c3cc(C#N)ccc3c1C2=O` [Compound 36, 4-(3-cyano-9-ethyl-6,6-dimethyl-11-oxo-6,11-dihydro-5H-benzo[b]carbazol-8-yl)-N,N-dimethyl-1H-pyrazole-1-carboxamide], the “single point inhibition of the G1202R mutant” value (from here on “single point inhibition”) is “quite potent”. Still for that read-out and setting: the value for `CCc1cc2c(cc1N1CCC(N(C)C)CC1)C(C)(C)c1[nH]c3cc(C#N)ccc3c1C2=O` [Compound 17, 8-(4-(dimethylamino)piperidin-1-yl)-9-ethyl-6,6-dimethyl-11-oxo-6,11-dihydro-5H-benzo[b]carbazole-3-carbonitrile] was “potent inhibition”; that for `CCc1cc2c(cc1C(=O)O)C(C)(C)c1[nH]c3cc(C#N)ccc3c1C2=O` [Compound 24, 3-cyano-9-ethyl-6,6-dimethyl-11-oxo-6,11-dihydro-5H-benzo[b]carbazole-8-carboxylic acid] was “much less potent”; that for `CCc1cc2c(cc1-c1ccoc1)C(C)(C)c1[nH]c3cc(C#N)ccc3c1C2=O` [Compound 11, 9-ethyl-8-(furan-3-yl)-6,6-dimethyl-11-oxo-6,11-dihydro-5H-benzo[b]carbazole-3-carbonitrile] was “much less inhibitory activity”.

In the case of `CCc1cc2c(cc1-c1cc[nH]n1)C(C)(C)c1[nH]c3cc(C#N)ccc3c1C2=O` [Compound 9, 9-ethyl-6,6-dimethyl-11-oxo-8-(1H-pyrazol-3-yl)-6,11-dihydro-5H-benzo[b]carbazole-3-carbonitrile], the “single point inhibition” value was “quite potent”.

For `CCc1cc2c(cc1[C@H](O)CO)C(C)(C)c1[nH]c3cc(C#N)ccc3c1C2=O` [Compound 23, (S)-8-(1,2-dihydroxyethyl)-9-ethyl-6,6-dimethyl-11-oxo-6,11-dihydro-5H-benzo[b]carbazole-3-carbonitrile], the “single point inhibition” value is on record as “much less potent”. Still for that read-out and setting: the value for `CCc1cc2c(cc1-c1cnn(C)c1)C(C)(C)c1[nH]c3cc(C#N)ccc3c1C2=O` [Compound 7, 9-ethyl-6,6-dimethyl-8-(1-methyl-1H-pyrazol-4-yl)-11-oxo-6,11-dihydro-5H-benzo[b]carbazole-3-carbonitrile] was “quite potent”; that for `CCc1cc2c(cc1N1CCN(C)CC1)C(C)(C)c1[nH]c3cc(C#N)ccc3c1C2=O` [Compound 19, 9-ethyl-6,6-dimethyl-8-(4-methylpiperazin-1-yl)-11-oxo-6,11-dihydro-5H-benzo[b]carbazole-3-carbonitrile] was “potent inhibition”; that for `CCc1cc2c(cc1-c1cccs1)C(C)(C)c1[nH]c3cc(C#N)ccc3c1C2=O` [Compound 12, 9-ethyl-6,6-dimethyl-11-oxo-8-(thiophen-2-yl)-6,11-dihydro-5H-benzo[b]carbazole-3-carbonitrile] was “much less inhibitory activity”. In the case of `CCc1cc2c(cc1-c1cnn(C(C)(C)C(=O)N(C)C)c1)C(C)(C)c1[nH]c3cc(C#N)ccc3c1C2=O` [Compound 35, 2-(4-(3-cyano-9-ethyl-6,6-dimethyl-11-oxo-6,11-dihydro-5H-benzo[b]carbazol-8-yl)-1H-pyrazol-1-yl)-N,N,2-trime-thylpropanamide], the “single point inhibition” value was “quite potent”. Regarding `CCc1cc2c(cc1/C=C/CN1CCOCC1)C(C)(C)c1[nH]c3cc(C#N)ccc3c1C2=O` [Compound 25, (E)-9-ethyl-6,6-dimethyl-8-(3-morpholinoprop-1-en-1-yl)-11-oxo-6,11-dihydro-5H-benzo[b]carbazole-3-carbonitrile], the “single point inhibition” value is given as “no activity”. Same read-out and setting: the value for `CCc1cc2c(cc1C#N)C(C)(C)c1[nH]c3cc(C#N)ccc3c1C2=O` [Compound 21, 9-ethyl-6,6-dimethyl-11-oxo-6,11-dihydro-5H-benzo[b]carbazole-3,8-dicarbonitrile] was “much less potent”; that for `CCc1cc2c(cc1[C@@H](O)CO)C(C)(C)c1[nH]c3cc(C#N)ccc3c1C2=O` [Compound 22, (R)-8-(1,2-dihydroxyethyl)-9-ethyl-6,6-dimethyl-11-oxo-6,11-dihydro-5H-benzo[b]carbazole-3-carbonitrile] was “much less potent”; that for `CCc1cc2c(cc1-c1cn[nH]c1)C(C)(C)c1[nH]c3cc(C#N)ccc3c1C2=O` [Compound 8, 9-ethyl-6,6-dimethyl-11-oxo-8-(1H-pyrazol-4-yl)-6,11-dihydro-5H-benzo[b]carbazole-3-carbonitrile] was “quite potent”.

A further assay deals with panel of 456 kinases. The conditions noted are these: 1 µM.
Compound `CCc1cc2c(cc1-c1cnn(CCCN(C)C)c1)C(C)(C)c1[nH]c3cc(C#N)ccc3c1C2=O` [Compound 32, 8-(1-(3-(dimethylamino)propyl)-1H-pyrazol-4-yl)-9-ethyl-6,6-dimethyl-11-oxo-6,11-dihydro-5H-benzo[b]carbazole-3-carbonitrile] registered a KINOMEscan interactions mapped of 39.

For the origin of these results see article PMC4907642 (Journal of medicinal chemistry, 2015).
